Laboratory results as given in PubChem BioAssay AID743128 (Broad Institute, 2013).
“And” between values parts separate entries of the source, which are not always exact repeats. Equal entries are not always repeated. The source made the active and inactive calls.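 Rule for the calls: active = compounds lowering the signal whose fitted half-maximal concentration is at most twice the top tested dose; inconclusive = flat curve with 30 to 70% inhibition, or poor fit; inactive = the rest.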

Key:
[1] = tested on: C. neoformans growth, alamar blue, 24 h; assay: antifungal activity, alamar blue, dry powder, counter-screen for C. neoformans cell wall antifungals, dose response (AID 743128)
[2] = as above; conditions: C. neoformans growth, alamar blue, 24 h; at 35 µM (top of the series)

Row | Structure (SMILES) | AC50 [1] | activity change, negative = inhibition [2]
1 | COC(=O)C1=C(C)N(Cc2ccc(F)cc2)C(=S)NC1c1cccc(F)c1 (configuration not stated) | 18.3 µM | –
2 | S=c1[nH]c2cccc(Cl)c2n1CCOc1ccccc1 | 6.35 µM | –
3 | Cc1ccc(OCCn2c(=S)[nH]c3ccccc32)cc1 | 9.48 µM | –
4 | COC(=O)C1=C(C)N(Cc2ccccc2)C(=S)NC1c1ccc(Br)cc1 (configuration not stated) | 8.1 µM | –
5 | CCOC(=O)c1c(NC(=O)CN2CCN(C)CC2)sc(C)c1-c1ccc(C)cc1 | 25.7 µM | –
6 | CCOC(=O)c1c(-c2ccc(C(C)(C)C)cc2)csc1NC(=O)CN1CCN(CC)CC1 | 15.7 µM | –
7 | CCOC(=O)c1c(NC(=O)CNCCN(C)C)sc(C)c1-c1ccccc1 | – | -16.3% (inactive)
8 | COC(=O)C1=C(C)N(Cc2ccc(Cl)cc2)C(=S)NC1c1ccc(Br)cc1 (configuration not stated) | 1.97 µM | –
9 | CCOC(=O)c1c(-c2ccc(F)cc2)csc1NC(=O)CN1CCN(C)CC1 | – | -11.2% (inactive)
10 | Cc1cccc(OCCn2c(=S)[nH]c3cc(C(F)(F)F)ccc32)c1 | – | 8.48% (inactive)
11 | S=c1[nH]c2ccccc2n1CCOc1ccc(Cl)cc1 | 10.9 µM | –
12 | Fc1ccccc1OCCn1c(=S)[nH]c2ccccc21 | 25.4 µM | –
13 | CCOc1ccc(OCCn2c(=S)[nH]c3ccccc32)cc1 | 25.5 µM | –
14 | Cc1ccc(OCCn2c(=S)[nH]c3ccccc32)c(C(C)C)c1 | 5.33 µM and 5.68 µM | –
15 | Cc1ccc(OCCn2c(SCCO)nc3ccccc32)c(C(C)C)c1 | 25.1 µM | –
16 | Cc1ccc(C(C)C)c(OCCn2c(=S)[nH]c3ccccc32)c1 | 4.14 µM | –
17 | COC(=O)C1=C(C)N(Cc2ccc(Br)cc2)C(=S)NC1c1ccc(F)cc1 (configuration not stated) | 4.9 µM | –
18 | S=c1[nH]c2ccccc2n1CCOc1ccccc1 | 24.9 µM | –
19 | O=c1[nH]c2ccccc2n1CCOc1ccccc1 | – | -1.57% (inactive) and -23.3% (inactive)
20 | CCOC(=O)c1c(-c2ccc(C(C)(C)C)cc2)csc1NC(=O)CN1CCN(C)CC1 | 15 µM | –
21 | CCOC(=O)c1c(-c2ccc(OC)cc2)csc1NC(=O)CN(C)CC(=O)N(C)C | – | -14.4% (inactive)
22 | c1ccc(OCCn2cnc3ccccc32)cc1 | – | -10.7% (inactive)
23 | COC(=O)C1=C(C)N(Cc2ccc(Br)cc2)C(=S)NC1c1ccc(OC)cc1 (configuration not stated) | 9.31 µM | –
24 | Cc1ccccc1OCCn1c(=S)[nH]c2ccccc21 | 8.04 µM | –
25 | Fc1cccc2c1[nH]c(=S)n2CCOc1ccccc1 | 25.4 µM | –
26 | CCOC(=O)c1c(-c2ccc(-c3ccccc3)cc2)csc1NC(=O)CNCCN(C)C | 21.7 µM | –
27 | Cc1ccc2c(c1)[nH]c(=S)n2CCOc1ccccc1 | 24.3 µM | –
